# Test results taken from US20230056846A1, “METHODS AND COMPOSITIONS FOR CANCER IMMUNOTHERAPY” (MEMORIAL SLOAN KETTERING CANCER CENTER, priority 2020, published 2023).
# Legend:
# CT26 MSH2-/- MMRd cells = experiment: viability assay of MMR-deficient MSH2 KO CT26 cells; format: cell-based, mouse; settings: MSH2 KO cells compared with parental CT26
# CT26 colon cancer cells = experiment: pre-treated CT26 cells implanted in mice randomized to anti PD-1 or IgG isotype control; format: in vivo, mouse
# Source text: FIGS. 4A-B. Treatment of colon cancer cells with TMZ and cisplatin induces a high frameshift load leading to the spontaneous immuno-rejection of tumors in a preclinical mouse model. FIG. 4A. […] Treatment with either anti PD-1 or the IgG isotype control was commenced when the tumors reached a volume of 200 mm^3. […] The MSH2 KO cell line was used as a positive control for PD-1 blockade. FIG. 4B. Tumors were subjected to whole exome sequencing at 250x and immunoediting was studied by comparing mutation losses before and after engraftment.
# Experiments were performed to examine the effect of PD-1 blockade on the growth of tumors generated following injection of mice with tumor cells that had been pre-treated with either a vehicle control, TMZ alone, cisplatin alone, or TMZ/CDDP combination. 1 million cells from control or treatment groups (pre-treated for 8 weeks) were implanted subcutaneously into mice (n=10) and mice were then randomly assigned to either an anti PD-1 treatment group (treated with anti PD-1 at 6 mg/kg twice weekly when tumor reached 200 mm^3) or an IgG isotype control group. CT26 MSH2 KO cells were used as a positive control (FIG. 4). […] For tumors generated following injection of cells pre-treated with the combination of both temozolomide and cisplatin, out of 10 implanted tumors only one was not rejected (9 out of 10 were rejected). […]
# [1] = tested on: CT26 colon cancer cell line
# Method: CT26 cells were treated for 8 weeks by low dose TMZ, CDDP or TMZ/CDDP combination (drugs were removed one week before the experiment).
smiles,measurement,setting,value
"[NH2][Pt]([NH2])([Cl])[Cl] [CDDP, cisplatin]",cytotoxicity,CT26 MSH2-/- MMRd cells,Higher activity
same,effect of PD-1 blockade compared with isotype control on tumors from pre-treated cells,CT26 colon cancer cells; anti PD-1 6 mg/kg twice weekly from 200 mm^3,no effect of PD-1 blockade
same,tumor growth compared to control,"CT26 colon cancer cells; cells pre-treated 8 weeks, 1 week wash out",no significant difference in tumor growth compared to control
same,sensitivity of CT26 cells to single agent,[1],sensitive
